Measurements as given in patent publication US9156791B2, “Pyrazole compounds acting against allergic, immune and inflammatory conditions” (Glaxo Group Limited, priority 2010, dated 2015).
pIC50: −log10 of the molar value.

What was measured:
[1] = In vitro microsomal clearance, rat; format: in vitro ADME
ICRAC current = test: ICRAC assay: thapsigargin-induced calcium influx in Jurkat E6-1 cells (Fluo-4, FLIPR); format: cell-based; conditions: Homo sapiens, thapsigargin 5 μM, calcium add-back, inhibition of maximal fluorescence signal
Description: This ICRAC assay uses the SERCA inhibitor thapsigargin to produce calcium depletion and activate an ICRAC current. […] Changes in intracellular calcium levels are determined by the inclusion of the calcium sensitive fluorescent dye Fluo-4 and the use of the FLIPR detection system. Inhibitors of ICRAC would be expected to decrease the calcium influx upon calcium add-back, thus reducing fluorescent signal.
Jurkat E6-1 is an established immortalised T lymphocyte cell line previously shown to express a functional ICRAC current. Jurkat cells grow in suspension, are cultured in DMEM+10% FBS, maintained in T175 flasks at 37° C./5% CO2, and are subcultured twice a week with either 1:10-1:20 splits. 1 confluent T175 yields 100 ml of approximately 2×10^6 cells/ml.
Loading buffer contains; NaCl 145 mM, KCl 2.5 mM, HEPES 10 mM, Glucose 10 mM, MgCl2 1.2 mM, made up with water, then pH adjusted to 7.4 using NaOH 1 M. Finally Fluo-4AM & brilliant black are added to give a final assay concentration of 2 μM and 250 μM respectively. […]
The required seeding density for a 384 plate is 20,000 cells per well. […] Plates are then transferred to the FLIPR which initially measures baseline fluorescence, followed by any increase in fluorescence evoked by the online addition of a 6 mM (1.2 mM FAC) calcium solution. […]

[2] = In vitro microsomal clearance, human; format: in vitro ADME
[3] = In vitro microsomal clearance, dog; format: in vitro ADME; conditions: Dog (Beagle)

CIint ([1]; Rat (CD)) | CIint ([1]; Rat (Wistar Han)) | pIC50 (ICRAC current) | CIint [2] | CIint [3] | Structure (SMILES)
1.67 mL/min g liver | 2.05 mL/min g liver | 5.50 | 0.80 mL/min g liver | 0.98 mL/min g liver | O=C(Nc1cnn(Cc2c(F)cccc2C(F)(F)F)c1)c1c(F)cccc1F [Example 1, 2,6-Difluoro-N-(1-{[2-fluoro-6-(trifluoromethyl)phenyl]methyl}-1H-pyrazol-4-yl)benzamide]
0.95 mL/min g liver | 1.16 mL/min g liver |  | <0.5 mL/min g liver | 0.80 mL/min g liver | [2H]C([2H])(c1c(F)cccc1C(F)(F)F)n1cc(NC(=O)c2c(F)cccc2F)cn1 [Example 3, 2,6-Difluoro-N-(1-(2-fluoro-6-(trifluoromethyl)-d2-benzyl)-1H-pyrazol-4-yl)benzamide]
